SMILES strings stand for the structures. pIC50: −log10 of the molar value.

As a reminder, the pIC50 is the IC50 on a negative log10 scale, so that one unit is a factor of ten. Higher therefore signals a low IC50.

In the first experiment the target is Human factor D (Homo sapiens (Human), UniProt P00746). It counts as biochemical.
Sequence of Human factor D (P00746 26-253 limits assumed): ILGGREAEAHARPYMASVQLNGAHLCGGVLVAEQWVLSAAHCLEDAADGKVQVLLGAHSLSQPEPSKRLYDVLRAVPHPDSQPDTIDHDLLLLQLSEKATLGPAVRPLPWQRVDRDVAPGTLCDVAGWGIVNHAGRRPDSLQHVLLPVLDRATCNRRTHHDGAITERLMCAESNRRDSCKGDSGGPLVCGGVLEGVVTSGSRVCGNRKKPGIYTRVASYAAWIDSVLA
Settings: not given
Compound `CC(=O)c1cn(CC(=O)N2C[C@H](F)C[C@H]2C(=O)NCc2cccc(Cl)c2F)c2ccc(OC(=O)NCc3cscn3)cc12` [Compound 2, 3-acctyl-1-(2-((2S,4R)-2-(3-chloro-2-fluorobenzylcarbamoyl)-4-fluoropyrrolidin-1-yl)-2-oxoethyl)-1H-indol-5-yl thiazol-4-ylmethylcarbamate] showed a negative-log IC50 (pIC50) of over 6.00.

Compound `CC(=O)c1cn(CC(=O)N2C[C@H](F)C[C@H]2C(=O)NCc2cccc(Cl)c2F)c2ccc(OC(=O)NCc3cocn3)cc12` [Compound 9, 3-acctyl-1-(2-((2S,4R)-2-(3-chloro-2-fluorobenzylcarbamoyl)-4-fluoropyrrolidin-1-yl)-2-oxoethyl)-1H-indol-5-yl oxazol-4-ylmethylcarbamate] gave a pIC50 of over 6.00.

`CC(=O)c1cn(CC(=O)N2C[C@H](F)C[C@H]2C(=O)NCc2cccc(Cl)c2F)c2ccc(OC(=O)NCc3ncccn3)cc12` [Compound 13, 3-acctyl-1-(2-((2S,4R)-2-(3-chloro-2-fluorobenzylcarbamoyl)-4-fluoropyrrolidin-1-yl)-2-oxoethyl)-1H-indol-5-yl pyrimidin-2-ylmethylcarbamate]: the negative-log IC50 (pIC50) is over 6.00. Still for that read-out and setting: for `CC(=O)c1cn(CC(=O)N2C[C@H](F)C[C@H]2C(=O)NCc2cccc(Cl)c2F)c2ccc(OC(=O)NCCc3c[nH]cn3)cc12` [Compound 15, 3-acctyl-1-(2-((2S,4R)-2-(3-chloro-2-fluorobenzylcarbamoyl)-4-fluoropyrrolidin-1-yl)-2-oxoethyl)-1H-indol-5-yl 2-(1H-imidazol-4-yl)ethylcarbamate] the value was over 6.00. In turn, `CC(=O)c1cn(CC(=O)N2C[C@H](F)C[C@H]2C(=O)NCc2cccc(Cl)c2F)c2ccc(OC(=O)NCCc3nn[nH]n3)cc12` [Compound 14, 3-acctyl-1-(2-((2S,4R)-2-(3-chloro-2-fluorobenzylcarbamoyl)-4-fluoropyrrolidin-1-yl)-2-oxoethyl)-1H-indol-5-yl 2-(2H-tetrazol-5-yl)ethylcarbamate] gave a negative logarithm of the IC50 (pIC50) of over 6.00.

The compound `CC(=O)c1cn(CC(=O)N2C[C@H](F)C[C@H]2C(=O)NCc2cccc(Cl)c2F)c2ccc(OC(=O)N3CCOCC3)cc12` [Compound 12, 3-acetyl-1-(2-((2S,4R)-2-(3-chloro-2-fluorobenzylcarbamoyl)-4-fluoropyrrolidin-1-yl)-2-oxoethyl)-1H-indol-5-yl morpholine-4-carboxylate] showed a negative logarithm of the IC50 (pIC50) of over 6.00. `CC(=O)c1cn(CC(=O)N2C[C@H](F)C[C@H]2C(=O)NCc2cccc(Cl)c2F)c2ccc(OC(=O)NC3CC3)cc12` [Compound 8, 3-acetyl-1-(2-((2S,4R)-2-(3-chloro-2-fluorobenzylcarbamoyl)-4-fluoropyrrolidin-1-yl)-2-oxoethyl)-1H-indol-5-yl cyclopropylcarbamate] showed a pIC50 of over 6.00. The same measure, in the same setting: for `CC(=O)c1cn(CC(=O)N2C[C@H](F)C[C@H]2C(=O)NCc2cccc(Cl)c2F)c2cc(OC(=O)NCCP(=O)(O)O)ccc12` [Compound 6, 2-((3-acctyl-1-(2-((2S,4R)-2-(3-chloro-2-fluorobenzylcarbamoyl)-4-fluoropyrrolidin-1-yl)-2-oxoethyl)-1H-indol-6-yloxy)carbonylamino) ethylphosphonic acid] the value was over 6.00. `CC(=O)c1cn(CC(=O)N2C[C@H](F)C[C@H]2C(=O)NCc2cccc(Cl)c2F)c2ccc(OC(=O)NCc3nnn[nH]3)cc12` [Compound 10, 3-acetyl-1-(2-((2S,4R)-2-(3-chloro-2-fluorobenzylcarbamoyl)-4-fluoropyrrolidin-1-yl)-2-oxoethyl)-1H-indol-5-yl (1H-tetrazol-5-yl)methylcarbamate] gave a negative logarithm of the IC50 (pIC50) of over 6.00.

As for `CC(=O)c1cn(CC(=O)N2C[C@H](F)C[C@H]2C(=O)NCc2cccc(Cl)c2F)c2cc(OC(=O)NCCc3nn[nH]n3)ccc12` [Compound 5, 3-acctyl-1-(2-((2S,4R)-2-(3-chloro-2-fluorobenzylcarbamoyl)-4-fluoropyrrolidin-1-yl)-2-oxoethyl)-1H-indol-6-yl 2-(2H-tetrazol-5-yl)ethylcarbamate], the negative-log IC50 (pIC50) is over 6.00.

On to `CC(=O)c1cn(CC(=O)Oc2ccc3c(c2)c(C(C)=O)cn3CC(=O)N2C[C@H](F)C[C@H]2C(=O)NCc2cccc(Cl)c2F)c2ccc(O)cc12` [Compound 1, 3-acetyl-1-(2-((2S,4R)-2-(3-chloro-2-fluorobcnzylcarbamoyl)-4-fluoropyrrolidin-1-yl)-2-oxoethyl)-1H-indol-5-yl 2-(3-acctyl-5-hydroxy-1H-indol-1-yl)acctate], for which the pIC50 is over 6.00. Regarding `CC(=O)c1cn(CC(=O)N2C[C@H](F)C[C@H]2C(=O)NCc2cccc(Cl)c2F)c2cc(OC(=O)NCc3nn[nH]n3)ccc12` [Compound 4, 3-acetyl-1-(2-((2S,4R)-2-(3-chloro-2-fluorobenzylcarbamoyl)-4-fluoropyrrolidin-1-yl)-2-oxoethyl)-1H-indol-6-yl (2H-tetrazol-5-yl)methylcarbamate], the negative logarithm of the IC50 (pIC50) is over 6.00.

The compound `CC(=O)c1cn(CC(=O)N2C[C@H](F)C[C@H]2C(=O)NCc2cccc(Cl)c2F)c2cc(C(=O)C[S+](C)[O-])ccc12` (stereo partly drawn) [Compound 11, (2S,4R)-1-(2-(3-acetyl-6-(2-(methylsulfinyl)acetyl)-1H-indol-1-yl)acetyl)-N-(3-chloro-2-fluorobenzyl)-4-fluoropyrrolidine-2-carboxamide] had a pIC50 of over 6.00.

As to `CC(=O)c1cn(CC(=O)N2C[C@H](F)C[C@H]2C(=O)NCc2cccc(Cl)c2F)c2cc(OC(=O)NCc3ccc(B(O)O)cc3)ccc12` [Compound 7, 4-(((3-acetyl-1-(2-((2S,4R)-2-(3-chloro-2-fluorobenzylcarbamoyl)-4-fluoropyrrolidin-1-yl)-2-oxoethyl)-1H-indol-6-yloxy)carbonylamino)methyl)phenylboronic acid], the negative logarithm of the IC50 (pIC50) is over 6.00. Same read-out and setting: for `CC(=O)c1cn(CC(=O)N2C[C@H](F)C[C@H]2C(=O)NCc2cccc(Cl)c2F)c2cc(OC(=O)NCc3cscn3)ccc12` [Compound 3, 3-acctyl-1-(2-((2S,4R)-2-(3-chloro-2-fluorobenzylcarbamoyl)-4-fluoropyrrolidin-1-yl)-2-oxoethyl)-1H-indol-6-yl thiazol-4-ylmethylcarbamate] the value was over 6.00.

Staying with this experiment, now noted: factor D 80 nM, substrate Z-L-Lys-SBzl 100 μM, DTNB, pH 7.5.
`CC(=O)c1cn(CC(=O)N2C[C@H](F)C[C@H]2C(=O)NCc2cccc(Cl)c2F)c2ccc(OC(=O)N3CCNCC3)cc12` [Compound 16, 3-acetyl-1-(2-((2S,4R)-2-(3-chloro-2-fluorobenzylcarbamoyl)-4-fluoropyrrolidin-1-yl)-2-oxoethyl)-1H-indol-5-yl piperazine-1-carboxylate] showed a pIC50 of over 6.00.

The values above are taken from US9732103B2 (priority 2014, dated 2017).
